The results in this text go back to US11234964B2, “Use of melatonin for the treatment of tumors” (UNIVERSIDAD DE GRANADA, priority 2017, dated 2022).

Entries after “also recorded” stand apart in the source; their conditions may differ.

Data set [1] deals with tumor cells. Briefly: Mitochondrial changes, oxygen consumption and free radicals in tumor cells. Type of data set: cell-based. An excerpt:
The relationship between the mitochondrial changes caused by melatonin and the cell death induced by this molecule in these tumor cells was studied. Melatonin increases the number of mitochondria as well as the number of cristae, DNA, and mitochondrial mass. The result is an increase in respiratory chain complexes, and accordingly an increase in oxygen consumption, which is related to an increase in free radicals and oxidative stress reflected by an increase in the GSSG/GSH ratio. However, the antioxidant capacity is not modified. The activity and the expression of antioxidant enzymes such as GPx and the GRd is not modified either. […] In other words, mitochondrial activity increases, and accordingly free radicals which induce cell death also increase. To carry out the assays, CAL-27 and SCC9 cells have been used as typical example of head and neck squamous cell carcinoma (HNSCC) cancer cells.

Another data set has as its system SCC-9 cells. The data set is described as follows: Mitochondrial function and free radicals in melatonin-resistant cells. It is filed as cell-based. An excerpt:
The relationship between the mitochondrial changes caused by melatonin and the cell death induced by this molecule in these tumor cells was studied. Melatonin increases the number of mitochondria as well as the number of cristae, DNA, and mitochondrial mass. The result is an increase in respiratory chain complexes, and accordingly an increase in oxygen consumption, which is related to an increase in free radicals and oxidative stress reflected by an increase in the GSSG/GSH ratio. However, the antioxidant capacity is not modified. The activity and the expression of antioxidant enzymes such as GPx and the GRd is not modified either. […] To carry out the assays, CAL-27 and SCC9 cells have been used as typical example of head and neck squamous cell carcinoma (HNSCC) cancer cells.

Another data set relates to CAL-27 tumor cells. The data set is described as follows: GPx and GRd antioxidant enzyme activity in tumor cells. It is filed as cell-based. An excerpt: The relationship between the mitochondrial changes caused by melatonin and the cell death induced by this molecule in these tumor cells was studied. Melatonin increases the number of mitochondria as well as the number of cristae, DNA, and mitochondrial mass. The result is an increase in respiratory chain complexes, and accordingly an increase in oxygen consumption, which is related to an increase in free radicals and oxidative stress reflected by an increase in the GSSG/GSH ratio. However, the antioxidant capacity is not modified. The activity and the expression of antioxidant enzymes such as GPx and the GRd is not modified either.

Data set [2] relates to CAL-27 and SCC9 cells xenografts. The data set is described as follows: Tumor volume in xenografted mice (photographs, NMR analysis). It is filed as in vivo, athymic nude mice (nu/nu). The note with it: for tumor volume: intratumoral injection. As for the experimental part: (§1) For the in vivo assays, athymic nude mice (nu/nu) (Janvier, Pays de la Loire, France) of about 5-6 weeks of age (18-20 g) were used. The animals were held in the animal housing unit of the Biomedical Research Center of University of Granada (CIBM) in sterile conditions and under controlled photoperiod (12:12 h) and temperature (22±1° C.) environments, with ad libitum water and laboratory diet. The handling and transplant of the animals was carried out in a laminar flow biosafety cabinet. The animals were anesthetized with an i.p. injection of ketamine (80 mg/kg) and xylazine (4 mg/kg).
(§2) Xenografts were performed with CAL-27 and SCC9 cells (the latter being resistant to melatonin). Cells enzymatically separated with trypsin-EDTA are resuspended at a concentration of 4×10^6 cells per mouse in PBS. Cell viability is determined by means of the Trypan Blue test. The cells are injected into the left flank of the mouse, with a volume of 200 μL of cell suspension being injected into each mouse with the help of a 1 mL syringe with a needle measuring 16×0.5 mm.
The body weight and tumor size are measured and recorded two or three times a week throughout the experiment. The tumor volume is calculated using the following formula: ½ (L×W2) (mm^3), where L is the length and W is the width. After the appearance of a tumoral node (100 mm^3), the mice carrying the tumors are randomly assigned to several groups.
The experimental groups were as follows: • 1. Mouse with untreated tumor • 2. Mouse with tumor treated with subcutaneously administered melatonin (s.c.) at a dose of 300 mg/kg (4.5% w/v melatonin solution). The concentration of melatonin in the tumor when melatonin is administered through this route is 10 ng/mg of proteins. • 3. Mouse with tumor treated with administered intratumorally melatonin (60 μl of a 0.1% w/v melatonin solution) fora tumor volume of 100 mm^3. 0.1% of melatonin is the minimum effective dose (in vitro) for inducing 80% cell death. When 0.1% of melatonin is administered, a concentration of 450 ng/mg of proteins is reached in the tumor. • 4. Mouse with tumor treated with intratumorally melatonin administered (60 μl of a 4.5% melatonin solution) for a tumor volume of 100 mm^3.
Therefore, once the tumor reached the indicated volume of 100 mm^3, it is treated with melatonin daily for 21 days according to the following protocol: • A. Injected s.c. (300 mg/kg which is equivalent to a 4.5% solution) • B. Injected directly into the tumor (60 μl of a 0.1% melatonin solution) • C. Injected directly into the tumor (60 μl of a 4.5% melatonin solution) • D. Injected directly into the tumor (60 μl of a 0.1% melatonin solution) until the complete disappearance of the tumor (28 days). • E. Photographs of the tumor were taken at the end of the treatment of each of the groups. […]

In the next data set the test system is tumor cells (CAL-27). The data set is described as follows: Cell death, apoptosis and proliferation of tumor cells in vitro. It is filed as cell-based. An excerpt: To carry out the assays, CAL-27 and SCC9 cells have been used as typical example of head and neck squamous cell carcinoma (HNSCC) cancer cells. […] The relationship between the mitochondrial changes caused by melatonin and the cell death induced by this molecule in these tumor cells has been studied. Melatonin increases mitochondrial mass, mitochondrial DNA, the number of mitochondria, as well as the number of mitochondrial cristae. The result is an increase in respiratory chain complexes, and accordingly an increase in oxygen consumption, which is related to an increase in free radicals and oxidative stress. […] In other words, the cytotoxic effects of melatonin in the tumor cells are related to an increase in mitochondrial function, and the increase in mitochondrial function in the tumor cell in turn induces apoptosis processes, which also entails the inhibition of protein synthesis.

Data set [3] deals with tumor cells. Briefly: Melatonin penetration in tumor cells in vitro. It is filed as cell-based. To be noted: cells incubated with 1500 μM melatonin for 24 hours. As for the experimental part:
To carry out the assays, CAL-27 and SCC9 cells have been used as typical example of head and neck squamous cell carcinoma (HNSCC) cancer cells.
In the in-vitro experiments, the tumor cells were incubated with different concentrations of melatonin. It was observed that melatonin readily enters the tumor cells, reaching levels of 450 ng/mg of proteins after incubating the cells with melatonin at a dose of 1500 μM for 24 hours (FIG. 1).

The conditions of data set [4]: athymic nude (nu/nu), mouse, in vivo. As for the experimental part:
as §1, §2
The experimental groups were as follows: • 1. […]
The concentration of melatonin in the tumors was measured after sacrificing the animals after 21 days. When it is injected directly into the tumor, the concentration of melatonin cannot be measured due to the limited amount of sample taking into account that the tumor practically disappears.

As to `COc1ccc2[nH]cc(CCNC(C)=O)c2c1` [melatonin, N-acetyl-5-methoxytryptamine], in the data set with tumor cells [1], the ATP production entry was “does not increase”, the “GSSG/GSH ratio (oxidative stress)” value is reported as “increase”, the free radicals entry is listed as “increase” and the “intermediate products of the Krebs cycle (metabolomics)” value is “increase”. Moreover, in the data set on tumor cells [1], the “mitochondrial DNA” value was “increases”; the mitochondrial mass result is recorded as “increases”; the “number of mitochondria and number of cristae” value is recorded as “increases”; the oxygen consumption result was “increase”. Besides, the “mitochondrial oxygen consumption and production of free radicals” value in the data set with SCC-9 cells (SCC-9 cells, compared with CAL-27) is given as “less production of reactive oxygen species; also recorded: much lower”. Further, the “sensitivity of cells to melatonin” value in the data set with SCC-9 cells (SCC-9 head and neck cancer cells) is recorded as “more resistant”. Besides, in the data set with CAL-27 tumor cells, the SOD result is given as “slight increase” and the antioxidant capacity entry is recorded as “not modified”. Moreover, the “GPx and GRd antioxidant enzyme activity” value in the data set with CAL-27 tumor cells (CAL-27 tumor cells) is given as “not modified; also recorded: does not increase”. For the same compound, in data set [2] (21 days after treatment), the tumor volume entry is given as “decreases drastically; also recorded: disappearing almost completely; also recorded: the decrease in tumor volume is so drastic that the tumor can hardly be observed”. For the same compound, in data set [2] (28 days after treatment), the tumor volume entry was “completely disappears; also recorded: disappears completely; also recorded: virtually disappeared”. In addition, the “necrotic areas in tumors (NMR images)” value in data set [2] (s.c. administered melatonin) is on record as “certain necrotic areas are observed”. Besides, in data set [2] (subcutaneous (systemic route), 300 mg/kg, 21 days), the “tumor volume with respect to the control” value is reported as “decreases very little; also recorded: the decrease in tumor volume is much lower; also recorded: the tumor volume decreases, although the effect is not very significant”. Further, in the data set with tumor cells (CAL-27), the cell cycle result is “stopping of cell cycle in the S and G2 phases”; the cell proliferation entry is given as “Inhibition”. The “size and number of colonies of tumor cells” value with tumor cells (CAL-27) (CAL-27 irradiated and treated with melatonin) is listed as “significant decrease”. The “minimum effective dose (in vitro) for inducing 80% cell death” value in the data set on tumor cells (CAL-27) (in vitro) was determined as 0.1%. Further, the apoptosis result in the data set with tumor cells (CAL-27) (tumor cells, high concentrations) is “increases apoptosis in a dose and time dependent manner”. The “melatonin levels in tumor cells” value in the data set with tumor cells [3] is 450 ng/mg of proteins. Also, in data set [4], the “concentration of melatonin reached in the tumor” value is reported as 450 ng/mg of proteins.
